Results from patent US5482954A, “Signal transduction inhibitor triazole and diazole compounds” (priority 1994, dated 1996).
Where two headings read alike, the source gives them in different places.

What was measured:
[1] = Plasma levels in mice (HPLC); assay type: in vivo, nude mice; settings: oral
Experimental: Murine data: A cohort of nude mice were inoculated with A2058 cells and treated with compound 1 at rates of 100 mg/kg/d and 250 mg/kg/qod. These animals were sacrificed humanely at 4 day intervals beginning 18 hr after oral administration of 1. Plasma was collected and frozen until evaluation by HPLC. Plasma samples were precipitated with 10% trichloroacetic acid and extracted with methylene chloride. The organic extract was evaporated to dryness under a stream of nitrogen, reconstituted and chromatographed by HPLC using an isocratic elution of 70% methanol in 0.1 M ammonium acetate (pH 6.5) on a C-18 analytical column. The lower level of sensitivity of this method is 20 ng/mL. The levels of compound 1 in plasma ranged from 1-5 μg/mL in the 100 mg/kg/d cohort and from 5-10 μg/mL in the 250 mg/kg/qod group. These plasma levels are in the range determined to be biologically significant in the inhibition of signal transduction.

CHOm5 cells = assay: Carbachol-stimulated 45Ca2+ influx; assay type: cell-based, Chinese hamster; design: % Inhibition of 45Ca2+ Influx into CHOm5 Cells: concentration or dose not given beside the values
Experimental: Calcium influx was determined using two methods. The first method involved the use of ^45 Ca^2+, while the second method utilized a fluorescent intracellular calcium chelator, Fura-2. The method using Fura-2 is semi-quantitative and is preferred for kinetic analysis and screening whereas the ^45 Ca^2+ method is quantitative.
CHOm5 cells in monolayer culture were washed free of serum-containing media and incubated with either carbachol or the calcium ionophore A23187 (from Molecular Probes, Eugene, Oreg., USA) in the presence of ^45 Ca^2+ and defined buffer (E2 medium with 0.1 mM MgCl2 and 1.0 mM CaCl2). After incubation for 5 min, the radioactive buffer was rapidly and repeatedly washed off with media containing LaCl3, a competitor of calcium efflux. The cell monolayer was solubilized and the calcium uptake was determined by scintillation counting.
Stimulated uptake of radiolabelled calcium was measured as described above. The abbreviations CTL and CC are control and carbachol-stimulated calcium influx values. respectively.

A2058 melanoma cells = assay: Reversibility of inhibition of tumor cell motility; assay type: cell-based, human; settings: for activity at 1 µg/mL / activity at 5 µg/mL: Homo sapiens, read-out: Motility (% of control)
Experimental: The cell motility assay has been described. See, Stracke et al., Biochem. Biophys. Res. Comm., 146:339-345 (1987). Cells from the A2058 human melanoma line which was maintained in subconfluent culture were harvested with trypsin-EDTA, and were allowed to recover for 1 hr at room temperature. Cells from the 5R H-ras transformed (diploid) rat embryo fibroblast line were harvested with 2 mM EDTA in PBS without divalent cations. Cells were resuspended in serum-free media containing 0.1% BSA. This DMEM/0.1% BSA was used as the control for all subsequent assays. The assays were performed in triplicate using a 48-well chemotaxis chamber with 8μ Nucleopore, type IV collagen-coated filters. The chambers were incubated at 37° C. for 4 hr, stained and placed onto glass slides with the original cell side up so that the cell pellet could be wiped from the surface. Cells that had migrated through the pores were trapped between glass and membrane and could be quantitated by laser densitometry.
Reversibility of cell motility which had been inhibited by compound 1 was determined by removing the compound from the incubation media. Thus, A2058 melanoma cells were cultured for 24 hr in standard media (DMEM/10% FCS), washed twice with saline, and cultured with DMEM/10% FCS with (+) or without (-) compound 1 for 24 hr. Cells were then washed and the treatments were reversed. The resulting cells are classified as "treated" (±, run as a control to test cell response following the incubation and washing steps), "washout" (±, run to evaluate reversibility), and "control". Control cells were washed and fed with standard media alone at each change point. Table E provides the results expressed as a percent of control cell motility at two concentrations of compound 1.

[2] = tested on: A2058 human melanoma tumors; assay: Oral treatment of subcutaneous xenografts; assay type: in vivo, nude mice
Experimental: This example illustrates the antitumor effect of compound 1 when administered orally to mice, following either subcutaneous inoculation of the mice with A2058 cells at two flank sites, intraperitoneal injection of OVCAR3 cells, or tail vein inoculation with 5R cells.
The antitumor effect of compound 1 was tested on groups of 10 nude mice which had been inoculated subcutaneously at two flank sites with 10^6 A2058 cells. Measureable tumors were observed within 14 days. On day 3 following tumor introduction, compound 1, diluted in PEG-400, or PEG-400 vehicle alone, was administered by gavage. Animals were monitored daily for toxicity, behavior, and extent of tumor. Weights and bidirectional measurements of A2058 tumor masses were determined three times per week.

[3] = tested on: 5R ras-transfected rat embryo fibroblast cell line; assay: Experimental pulmonary metastasis, tumor cells pretreated in vitro; assay type: in vivo, nude mice; settings: cells treated overnight, 1-10 μM; 10 d
Experimental: This example illustrates the effect of selected compounds on the development of experimental pulmonary metastases, when the tumor cells are first incubated with the compound in vitro and subsequently injected into the tail vein of nude mice. In this example, both the 5R ras-transfected rat embryo fibroblast cell line and the HT-29 human colon cancer cell line were evaluated.
The 5R ras-transfected rat embryo fibroblast cell line forms confluent pulmonary metastases within 2-3 weeks after inoculation. For the experimental metastasis assay, 5R cells were treated in culture overnight with the test compounds (1-10 μM). After culture, the cells were harvested, washed and injected into the tail vein of six-week old nude mice. After 10 d, the mice were humanely sacrificed and the lungs were removed and fixed in Bouin's solution. The visible pulmonary metastases were counted.

[4] = tested on: signal transduction and tumor growth; assay: Biological and biochemical assays, summary; assay type: cell-based; settings: summary of all assays
Text: Compound 1 was inhibitory for the biological and biochemical assays.

A2058 cells = assay: AMF-stimulated phosphatidyl inositol metabolism; assay type: cell-based, human
Experimental: This example illustrates the effect of compound 1 on the generation and release of phosphatidyl inositol from either A2058 cells (stimulated with autocrine motility factor) or CHOm5 cells (stimulated with carbachol).
A2058 cells were incubated with compound 1 (1.0 μg/mL) for 24 hr, then labelled overnight with [^3 H]inositol in serum-free, low inositol IMEM (LI-IMEM). Cells were then harvested, suspended, and incubated in LI-IMEM containing 10 mM LiCl for 30 min. The metabolism assay was initiated by the addition of either AMF or serum-free medium control to aliquots of 100,000 cells. The aliquots were incubated at 37° C. for 15 and 120 min, then washed twice with ice-cold PBS and extracted with chloroform:methanol (1:2). The total inositol phosphates were removed using Dowex anion exchange column chromatography eluted with ammonium formate 1.0 M/formic acid 0.1 M buffer. Total inositol phosphates and unincorporated total intracellular [^3 H]inositol were quantitated by […]. Data are expressed as a ratio of total inositol phosphates to total unincorporated [^3 H]inositol.

NC(=O)c1nnn(Cc2cc(Cl)c(C(=O)c3ccc(Cl)cc3)c(Cl)c2)c1N [Compound 1]
level in plasma ([1]; 100 mg/kg/d): 1000 to 5000 ng/mL | level in plasma ([1]; 250 mg/kg/qod): 5000 to 10000 ng/mL | IC50 (CHOm5 cells; Cricetulus griseus, FIG. 12, carbachol): 0.935 ± 0.018 µM | % Inhibition of 45Ca2+ Influx into CHOm5 Cells (CHOm5 cells; Table I, carbachol-stimulated): 74% | activity at 1 µg/mL (A2058 melanoma cells; A2058, 1 μg/mL (+/-)): 97% | activity at 1 µg/mL (A2058 melanoma cells; A2058, 1 μg/mL (-/+)): 59% | activity at 5 µg/mL (A2058 melanoma cells; A2058, 5 μg/mL (+/-)): 94% | activity at 5 µg/mL (A2058 melanoma cells; A2058, 5 μg/mL (-/+)): 27% | reversibility of motility inhibition (A2058 melanoma cells; removal of the compound from the culture medium): could be reversed by removal of the compound from the culture medium | gross toxicity ([2]; 35 days of administration, and at necropsy): No gross toxicity | tumor necrosis ([2]; histologic evaluation of necropsy specimens): Marked necrosis | tumor growth ([2]; oral gavage from day 3): Significant growth arrest | tumor incidence ([2]; oral gavage from day 3): marked delay in tumor incidence | inhibition of pulmonary colonization [3]: 95% | inhibition in the biological and biochemical assays [4]: inhibitory | inhibition of AMF-stimulated phosphatidyl inositol hydrolysis (A2058 cells; 1.0 μg/mL, 24 hr): significantly inhibited | inhibition at 1 µg/mL (A2058 cells; Homo sapiens, A2058, 1.0 μg/mL, 24 hr, read-out: inhibition of AMF-stimulated phosphatidyl inositol hydrolysis): ~45% | effect on unstimulated cells (inositol phosphates) (A2058 cells; treated, unstimulated cells): no appreciable effect
